Data reported in patent EP3294317B1, “ENHANCED ANTIBIOTIC COMPOSITION” (Universitat Autònoma de Barcelona, priority 2015, dated 2016).

Columns and labels:
[1] = tested on: A. baumannii 6963; experiment: Colistin broth microdilution MIC with potentiator compounds, resistant clinical isolates (Example 3); assay type: cell-based, Acinetobacter baumannii; conditions: MIC in the presence of 1.0% DMSO / MIC in the presence of 0.1 mM compound and 1.0% DMSO, positive = increased susceptibility, 1 = no effect
Description: (§1) The potentiator effect of the compound of the invention and other compounds disclosed herein was tested using colistin sulfate as antibiotic and in combination with the enhancer compounds in front of resistant clinical isolates.
(§2) Tests were performed to determine the potentiator effect of the compound of the invention and other compounds disclosed herein with multidrug-resistant S. maltophilia and A. baumannii clinical strains as shown in Table 5: TABLE 5
(§3) For this experiment the potentiator compound was added to a colistin broth microdilution assay at a final concentration of 0.1mM. MICs were determined as described in the Example 1.
(§4) Colistin minimal inhibitory concentration (MIC), expressed in µg/mL, and the fold increase in bacterial susceptibility to colistin when combined with the potentiator compound (expressed as MIC in the presence of 1.0% DMSO / MIC in the presence of 0.1 mM of each potentiator compound and 1.0% DMSO) are shown in Table 6: […]

[2] = tested on: A. baumannii 6799; experiment: as above; assay type: cell-based, Acinetobacter baumannii; conditions: MIC in the presence of 1.0% DMSO / MIC in the presence of 0.1 mM compound and 1.0% DMSO, positive = increased susceptibility, 1 = no effect
Description: as §1, §2, §3, §4

[3] = tested on: P. aeruginosa ATCC 27853; experiment: Broth microdilution MIC of other antibiotics with potentiator compounds (Example 2); assay type: cell-based, Pseudomonas aeruginosa; conditions: for Fold increase in bacterial susceptibility to antibiotic indicated: any of ciprofloxacin, amikacin, levofloxacin, tigecycline, imipenem, TMP/SMX (1:19), 0.1 mM potentiator, 1.0% DMSO, 'none' = no antibiotic potentiated
Description: (§5) Following the procedure of Example 1, ciprofloxacin, amikacin, levofloxacin, tigecycline, imipenem and the combination trimethoprim/sulfamethoxasole (1:19) were tested. All were purchased from Sigma-Aldrich Co.
(§6) Minimal inhibitory concentration (MIC) of the antibiotic or the test combinations were determined by the broth microdilution method.
(§7) Antibiotic stock solutions were prepared according to CLSI recommendations and sterilizing by passage through 0.20 µm filters.
(§8) Antimicrobial susceptibility testing of these isolates was performed using the broth microdilution (BMD) method, according to CLSI guidelines.
(§9) The fold increase in bacterial susceptibility to antibiotics when combined with the potentiator compound (expressed as MIC in the presence of 1.0% DMSO / MIC in the presence of 0.1 mM of each potentiator compound and 1.0% DMSO) are shown in Table 4: […]

[4] = tested on: Pseudomonas aeruginosa ATCC 27853; experiment: Colistin broth microdilution MIC with potentiator compounds (Example 1); assay type: cell-based; conditions: P. aeruginosa ATCC 27853; MIC in the presence of 1.0% DMSO / MIC in the presence of 0.1 mM potentiator compound and 1.0% DMSO; positive = increased, negative = decreased susceptibility, 1 = no effect
[5] = tested on: Acinetobacter baumannii ATCC 15308; experiment: as above; assay type: cell-based; conditions: A. baumannii ATCC 15308; MIC in the presence of 1.0% DMSO / MIC in the presence of 0.1 mM potentiator compound and 1.0% DMSO; positive = increased, negative = decreased susceptibility, 1 = no effect
[6] = tested on: Pseudomonas aeruginosa PAO1; experiment: as above; assay type: cell-based; conditions: P. aeruginosa PAO1; MIC in the presence of 1.0% DMSO / MIC in the presence of 0.1 mM potentiator compound and 1.0% DMSO; positive = increased, negative = decreased susceptibility, 1 = no effect
[7] = tested on: Escherichia coli ATCC 9637; experiment: as above; assay type: cell-based; conditions: E. coli ATCC 9637; MIC in the presence of 1.0% DMSO / MIC in the presence of 0.1 mM potentiator compound and 1.0% DMSO; positive = increased, negative = decreased susceptibility, 1 = no effect
[8] = tested on: A. baumannii ATCC 15308; experiment: Broth microdilution MIC of other antibiotics with potentiator compounds (Example 2); assay type: cell-based, Acinetobacter baumannii; conditions: for Fold increase in bacterial susceptibility to TMP/SMX: Trimethoprim:sulfamethoxazole 1:19, MIC in 1.0% DMSO / MIC with 0.1 mM potentiator compound and 1.0% DMSO
Description: as §5, §6, §7, §8, §9

[9] = tested on: S. maltophilia ATCC 13637; experiment: as above; assay type: cell-based, Stenotrophomonas maltophilia
Description: as §5, §6, §7, §8, §9

[10] = tested on: Salmonella enterica subsp. enterica ATCC 14028; experiment: Colistin broth microdilution MIC with potentiator compounds (Example 1); assay type: cell-based; conditions: S. enterica ATCC 14028; MIC in the presence of 1.0% DMSO / MIC in the presence of 0.1 mM potentiator compound and 1.0% DMSO; positive = increased, negative = decreased susceptibility, 1 = no effect
[11] = tested on: Enterobacter aerogenes ATCC 13048; experiment: as above; assay type: cell-based; conditions: E. aerogenes ATCC 13048; MIC in the presence of 1.0% DMSO / MIC in the presence of 0.1 mM potentiator compound and 1.0% DMSO; positive = increased, negative = decreased susceptibility, 1 = no effect
[12] = tested on: Escherichia coli ATCC 25922; experiment: as above; assay type: cell-based; conditions: E. coli ATCC 25922; MIC in the presence of 1.0% DMSO / MIC in the presence of 0.1 mM potentiator compound and 1.0% DMSO; positive = increased, negative = decreased susceptibility, 1 = no effect
[13] = tested on: Stenotrophomonas maltophilia ATCC 13637; experiment: as above; assay type: cell-based; conditions: S. maltophilia ATCC 13637; MIC in the presence of 1.0% DMSO / MIC in the presence of 0.1 mM potentiator compound and 1.0% DMSO; positive = increased, negative = decreased susceptibility, 1 = no effect
[14] = tested on: S. maltophilia M30; experiment: Colistin broth microdilution MIC with potentiator compounds, resistant clinical isolates (Example 3); assay type: cell-based, Stenotrophomonas maltophilia; conditions: MIC in the presence of 1.0% DMSO / MIC in the presence of 0.1 mM compound and 1.0% DMSO, positive = increased susceptibility, 1 = no effect
Description: as §1, §2, §3, §4

[15] = tested on: S. maltophilia 257; experiment: as above; assay type: cell-based, Stenotrophomonas maltophilia; conditions: MIC in the presence of 1.0% DMSO / MIC in the presence of 0.1 mM compound and 1.0% DMSO, positive = increased susceptibility, 1 = no effect
Description: as §1, §2, §3, §4

[16] = tested on: A. baumannii 6963; experiment: Broth microdilution MIC of other antibiotics with potentiator compounds, clinical isolates (Example 4); assay type: cell-based, Acinetobacter baumannii; conditions: any of ciprofloxacin, amikacin, levofloxacin, imipenem, TMP/SMX (1:19), 0.1 mM compound, 1.0% DMSO, 'none' = no antibiotic potentiated
Description: (§10) Following the procedure of Example 3, ciprofloxacin, amikacin, levofloxacin, imipenem and the combination trimethoprim/sulfamethoxasole (1:19) were tested. All were purchased from Sigma-Aldrich Co.
as §6, §7, §8
(§11) The fold increase in bacterial susceptibility to antibiotics when combined with the potentiator compound (expressed as MIC in the presence of 1.0% DMSO / MIC in the presence of 0.1 mM of each potentiator compound and 1.0% DMSO) are shown in Table 7: […]

[17] = tested on: A. baumannii 6799; experiment: as above; assay type: cell-based, Acinetobacter baumannii; conditions: for Fold increase in bacterial susceptibility to TMP/SMX: Trimethoprim:sulfamethoxazole 1:19, MIC in 1.0% DMSO / MIC with 0.1 mM compound and 1.0% DMSO
Description: as §10, §6, §7, §8, §11

[18] = tested on: S. maltophilia 257; experiment: as above; assay type: cell-based, Stenotrophomonas maltophilia; conditions: any of ciprofloxacin, amikacin, levofloxacin, imipenem, TMP/SMX (1:19), 0.1 mM compound, 1.0% DMSO, 'none' = no antibiotic potentiated
Description: as §10, §6, §7, §8, §11

[19] = any of ciprofloxacin, amikacin, levofloxacin, tigecycline, imipenem, TMP/SMX (1:19), 0.1 mM potentiator, 1.0% DMSO, 'none' = no antibiotic potentiated
[20] = MIC in 1.0% DMSO / MIC with 0.1 mM potentiator compound and 1.0% DMSO

| SMILES | Fold increase in bacterial susceptibility to colistin [1] | Fold increase in bacterial susceptibility to colistin [2] | Fold increase in bacterial susceptibility to antibiotic indicated [3] | Fold increase in bacterial susceptibility to colistin [4] [fold] | Fold increase in bacterial susceptibility to colistin [5] | Fold increase in bacterial susceptibility to colistin [6] | Fold increase in bacterial susceptibility to colistin [7] | Fold increase in bacterial susceptibility to Tigecycline [9, 20] | Fold increase in bacterial susceptibility to colistin [10] | Fold increase in bacterial susceptibility to colistin [11] [fold] | Fold increase in bacterial susceptibility to colistin [12] [fold] | Fold increase in bacterial susceptibility to colistin [13] | Fold increase in bacterial susceptibility to colistin [14] | Fold increase in bacterial susceptibility to colistin [15] | Fold increase in bacterial susceptibility to TMP/SMX [8] | Fold increase in bacterial susceptibility to antibiotic indicated [16] | Fold increase in bacterial susceptibility to TMP/SMX [17] | Fold increase in bacterial susceptibility to antibiotic indicated [18] | other results |
| --- | --- | --- | --- | --- | --- | --- | --- | --- | --- | --- | --- | --- | --- | --- | --- | --- | --- | --- | --- |
| N#Cc1cccc(CN2CCC(c3cnn(Cc4cccc(C#N)c4)c3)CC2)c1 [IID, 3-[[4-[1-[(3-cyanophenyl)methyl]pyrazol-4-yl]piperidin-1-yl]methyl]-benzonitrile] | +4 fold | 1 fold | none | 1 | +4 fold | 1 fold | 1 fold | Ciprofloxacin (2) Tigecycline (2) fold | 1 fold | 1 | 1 | +8 fold | +16 fold | 1 fold | – | – | – | – | Fold increase in bacterial susceptibility to antibiotic indicated [8, 19]: none; Fold increase in bacterial susceptibility to Ciprofloxacin [9, 20]: Ciprofloxacin (2) Tigecycline (2) fold |
| O=C(NCC(=O)N1CCN(c2cccc(Cl)c2)CC1)c1cccc(NC(=O)c2cccnc2)c1 [IIC, N-[3-[[2-[4-(3-chlorophenyl)piperazin-1-yl]-2-oxoethyl]carbamoyl]-phenyl]pyridine-3-carboxamide] | +2 fold | +2 fold | – | 1 | +4 fold | 1 fold | 1 fold | – | 1 fold | 1 | 1 | +4 fold | +16 fold | 1 fold | – | – | – | – | – |
| CCOC(=O)c1cc2cc(C(=O)N3CCN(Cc4cccc(C(F)(F)F)c4)CC3)ccc2[nH]1 [IIB, ethyl 5-[4-[[3-(trifluoromethyl)phenyl]methyl]piperazine-1-carbonyl]-1 H-indole-2-carboxylate] | +2 fold | +2 fold | none | 1 | >8 fold | +2 fold | +2 fold | – | +4 fold | 1 | 1 | +4 fold | +16 fold | +4 fold | TMP/SMX (2) fold | none | TMP/SMX (2) fold | none | Fold increase in bacterial susceptibility to antibiotic indicated [9, 19]: none |
| O=C(CCCN1C(=O)c2cccc3cccc(c23)C1=O)N1CCN(c2ccccc2O)CC1 [IIA, 2-[4-[4-(2-hydroxyphenyl)piperazin-1-yl]-4-oxobutyl]benzo[de]isoquinoline-1,3-dione] | +2 fold | +2 fold | – | -2 | +4 fold | 1 fold | +2 fold | Tigecycline (2) fold | +2 fold | 1 | 1 | +4 fold | +8 fold | 1 fold | Amikacin (2) TMP/SMX (2) fold | none | Amikacin (2) TMP/SMX (2) fold | none | Fold increase in bacterial susceptibility to Imipenem [3, 20]: Imipenem (2) fold; Fold increase in bacterial susceptibility to Amikacin [8, 20]: Amikacin (2) TMP/SMX (2) fold; Fold increase in bacterial susceptibility to Amikacin ([17]; MIC in 1.0% DMSO / MIC with 0.1 mM compound and 1.0% DMSO): Amikacin (2) TMP/SMX (2) fold |
